From publication PMC10905675, “INX-315, a Selective CDK2 Inhibitor, Induces Cell Cycle Arrest and Senescence in Solid Tumors” (Cancer Discovery, 2023)
Read-outs that look alike come from different tables or passages of the source.

Key:
[1] = target: T1, ABL1 G250E (Homo sapiens, UniProt P00519, G250E); assay: SelectScreen ZLYTE; type: biochemical; settings: INX-0315 at 100nM
T1 construct: purchased Thermo Fisher Scientific SelectScreen (plus Nanosyn / Reaction Biology for CDK/cyclin lines)
Text: (§1) INX-315 was first evaluated in the SelectScreen Biochemical Kinase Profiling at Thermo Fisher Scientific (Madison, WI). The primary screen consisted of INX-315 dosed at a single concentration of 100 nmol/L in 1% DMSO across each platform within the SelectScreen array of assays, LanthaScreen Eu Kinase Binding Assay; AdaptaScreen; and Z'LyteScreen using preestablished conditions at Thermo Fisher Scientific as shown in Supplementary Table S2. […] The follow-up screen consisted of 10-point dose–response curves for INX-315 from 1 µmol/L to 0.0495 nmol/L.

[2] = target: T2, PLK3 (Homo sapiens, UniProt Q9H4B4); assay: SelectScreen ZLYTE; type: biochemical; settings: INX-0315 at 100nM
T2 construct: purchased Thermo Fisher Scientific SelectScreen (plus Nanosyn / Reaction Biology for CDK/cyclin lines)
Text: as §1

[3] = target: T3, PRKCG (PKC gamma) (Homo sapiens, UniProt P05129); assay: SelectScreen ZLYTE; type: biochemical; settings: INX-0315 at 100nM
T3 construct: purchased Thermo Fisher Scientific SelectScreen (plus Nanosyn / Reaction Biology for CDK/cyclin lines)
Text: as §1

[4] = target: T4, MYLK2 (skMLCK) (Homo sapiens, UniProt Q9H1R3); assay: SelectScreen ZLYTE; type: biochemical; settings: INX-0315 at 100nM
T4 construct: purchased Thermo Fisher Scientific SelectScreen (plus Nanosyn / Reaction Biology for CDK/cyclin lines)
Text: as §1

[5] = target: T5, AMPK (A1/B2/G2) (Homo sapiens, UniProt Q13131); assay: SelectScreen ZLYTE; type: biochemical; settings: INX-0315 at 100nM
T5 construct: purchased Thermo Fisher Scientific SelectScreen (plus Nanosyn / Reaction Biology for CDK/cyclin lines)
Text: as §1

[6] = target: T6, DNA-PK (Homo sapiens, UniProt P78527); assay: SelectScreen ZLYTE; type: biochemical; settings: INX-0315 at 100nM
T6 construct: purchased Thermo Fisher Scientific SelectScreen (plus Nanosyn / Reaction Biology for CDK/cyclin lines)
Text: as §1

[7] = target: T7, PAK3 (Homo sapiens, UniProt O75914); assay: SelectScreen ZLYTE; type: biochemical; settings: INX-0315 at 100nM
T7 construct: purchased Thermo Fisher Scientific SelectScreen (plus Nanosyn / Reaction Biology for CDK/cyclin lines)
Text: as §1

[8] = target: T8, BRSK1 (SAD1) (Homo sapiens, UniProt Q8TDC3); assay: SelectScreen ZLYTE; type: biochemical; settings: INX-0315 at 100nM
T8 construct: purchased Thermo Fisher Scientific SelectScreen (plus Nanosyn / Reaction Biology for CDK/cyclin lines)
Text: as §1

[9] = target: T9, PHKG1 (Homo sapiens, UniProt Q16816); assay: SelectScreen ZLYTE; type: biochemical; settings: INX-0315 at 100nM
T9 construct: purchased Thermo Fisher Scientific SelectScreen (plus Nanosyn / Reaction Biology for CDK/cyclin lines)
Text: as §1

[10] = target: T10, MARK3 (Homo sapiens, UniProt P27448); assay: SelectScreen ZLYTE; type: biochemical; settings: INX-0315 at 100nM
T10 construct: purchased Thermo Fisher Scientific SelectScreen (plus Nanosyn / Reaction Biology for CDK/cyclin lines)
Text: as §1

[11] = target: T11, ROCK1 (Homo sapiens, UniProt Q13464); assay: SelectScreen ZLYTE; type: biochemical; settings: INX-0315 at 100nM
T11 construct: purchased Thermo Fisher Scientific SelectScreen (plus Nanosyn / Reaction Biology for CDK/cyclin lines)
Text: as §1

[12] = target: T12, GSK3A (GSK3 alpha) (Homo sapiens, UniProt P49840); assay: SelectScreen ZLYTE; type: biochemical; settings: INX-0315 at 100nM
T12 construct: purchased Thermo Fisher Scientific SelectScreen (plus Nanosyn / Reaction Biology for CDK/cyclin lines)
Text: as §1

[13] = target: T13, DYRK1A (Homo sapiens, UniProt Q13627); assay: SelectScreen ZLYTE; type: biochemical; settings: INX-0315 at 100nM
T13 construct: purchased Thermo Fisher Scientific SelectScreen (plus Nanosyn / Reaction Biology for CDK/cyclin lines)
Text: as §1

[14] = target: T14, KDR (VEGFR2) (Homo sapiens, UniProt P35968); assay: SelectScreen ZLYTE; type: biochemical; settings: INX-0315 at 100nM
T14 construct: purchased Thermo Fisher Scientific SelectScreen (plus Nanosyn / Reaction Biology for CDK/cyclin lines)
Text: as §1

[15] = target: T15, STK25 (YSK1) (Homo sapiens, UniProt O00506); assay: SelectScreen ZLYTE; type: biochemical; settings: INX-0315 at 100nM
T15 construct: purchased Thermo Fisher Scientific SelectScreen (plus Nanosyn / Reaction Biology for CDK/cyclin lines)
T15 sequence (O00506 whole entry): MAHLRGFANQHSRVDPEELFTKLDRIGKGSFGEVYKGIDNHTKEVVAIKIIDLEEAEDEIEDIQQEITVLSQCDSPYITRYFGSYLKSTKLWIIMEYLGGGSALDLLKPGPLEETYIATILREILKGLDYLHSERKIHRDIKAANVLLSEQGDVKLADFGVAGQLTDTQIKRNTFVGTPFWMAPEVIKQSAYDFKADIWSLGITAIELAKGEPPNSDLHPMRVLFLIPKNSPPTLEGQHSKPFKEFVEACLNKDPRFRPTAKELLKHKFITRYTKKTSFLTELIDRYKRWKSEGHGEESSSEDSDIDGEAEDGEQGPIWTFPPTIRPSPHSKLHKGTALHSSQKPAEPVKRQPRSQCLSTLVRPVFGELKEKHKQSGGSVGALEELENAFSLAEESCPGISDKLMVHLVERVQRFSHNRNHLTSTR
Text: as §1

[16] = target: T16, ERBB2 (HER2) (Homo sapiens, UniProt P04626); assay: SelectScreen ZLYTE; type: biochemical; settings: INX-0315 at 100nM
T16 construct: purchased Thermo Fisher Scientific SelectScreen (plus Nanosyn / Reaction Biology for CDK/cyclin lines)
T16 sequence (P04626 23-1255): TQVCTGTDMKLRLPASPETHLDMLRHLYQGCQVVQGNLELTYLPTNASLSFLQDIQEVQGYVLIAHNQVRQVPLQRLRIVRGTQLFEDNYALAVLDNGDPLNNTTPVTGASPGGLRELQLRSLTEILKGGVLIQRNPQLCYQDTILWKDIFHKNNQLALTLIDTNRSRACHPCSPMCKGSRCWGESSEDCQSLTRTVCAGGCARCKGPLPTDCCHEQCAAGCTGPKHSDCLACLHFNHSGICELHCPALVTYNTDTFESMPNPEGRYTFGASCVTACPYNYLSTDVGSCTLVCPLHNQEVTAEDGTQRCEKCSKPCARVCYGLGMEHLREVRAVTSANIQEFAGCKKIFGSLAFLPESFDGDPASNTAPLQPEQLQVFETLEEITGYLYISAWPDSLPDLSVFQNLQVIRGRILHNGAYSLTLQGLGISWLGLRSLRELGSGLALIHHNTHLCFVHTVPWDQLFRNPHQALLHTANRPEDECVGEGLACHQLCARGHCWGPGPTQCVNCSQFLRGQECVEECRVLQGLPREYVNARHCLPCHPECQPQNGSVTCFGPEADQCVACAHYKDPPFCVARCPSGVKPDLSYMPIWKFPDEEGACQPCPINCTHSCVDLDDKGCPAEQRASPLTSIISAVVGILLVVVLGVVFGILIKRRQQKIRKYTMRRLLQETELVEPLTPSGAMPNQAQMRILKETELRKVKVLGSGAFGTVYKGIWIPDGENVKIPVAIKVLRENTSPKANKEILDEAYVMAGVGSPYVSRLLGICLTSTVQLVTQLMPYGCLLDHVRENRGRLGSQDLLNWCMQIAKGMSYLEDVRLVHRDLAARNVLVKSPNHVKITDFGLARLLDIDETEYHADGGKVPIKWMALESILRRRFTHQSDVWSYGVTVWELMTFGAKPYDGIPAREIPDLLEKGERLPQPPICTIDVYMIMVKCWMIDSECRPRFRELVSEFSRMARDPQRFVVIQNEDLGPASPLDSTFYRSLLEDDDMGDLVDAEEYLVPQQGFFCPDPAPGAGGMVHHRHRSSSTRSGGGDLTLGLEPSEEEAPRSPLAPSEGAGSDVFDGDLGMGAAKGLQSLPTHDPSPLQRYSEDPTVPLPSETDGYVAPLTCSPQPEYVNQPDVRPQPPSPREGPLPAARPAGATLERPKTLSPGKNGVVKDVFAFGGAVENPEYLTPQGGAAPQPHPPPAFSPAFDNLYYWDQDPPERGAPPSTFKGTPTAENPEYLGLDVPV
Text: as §1

[17] = target: T17, PRKCI (PKC iota) (Homo sapiens, UniProt P41743); assay: SelectScreen ZLYTE; type: biochemical; settings: INX-0315 at 100nM
T17 construct: purchased Thermo Fisher Scientific SelectScreen (plus Nanosyn / Reaction Biology for CDK/cyclin lines)
T17 sequence (P41743 whole entry): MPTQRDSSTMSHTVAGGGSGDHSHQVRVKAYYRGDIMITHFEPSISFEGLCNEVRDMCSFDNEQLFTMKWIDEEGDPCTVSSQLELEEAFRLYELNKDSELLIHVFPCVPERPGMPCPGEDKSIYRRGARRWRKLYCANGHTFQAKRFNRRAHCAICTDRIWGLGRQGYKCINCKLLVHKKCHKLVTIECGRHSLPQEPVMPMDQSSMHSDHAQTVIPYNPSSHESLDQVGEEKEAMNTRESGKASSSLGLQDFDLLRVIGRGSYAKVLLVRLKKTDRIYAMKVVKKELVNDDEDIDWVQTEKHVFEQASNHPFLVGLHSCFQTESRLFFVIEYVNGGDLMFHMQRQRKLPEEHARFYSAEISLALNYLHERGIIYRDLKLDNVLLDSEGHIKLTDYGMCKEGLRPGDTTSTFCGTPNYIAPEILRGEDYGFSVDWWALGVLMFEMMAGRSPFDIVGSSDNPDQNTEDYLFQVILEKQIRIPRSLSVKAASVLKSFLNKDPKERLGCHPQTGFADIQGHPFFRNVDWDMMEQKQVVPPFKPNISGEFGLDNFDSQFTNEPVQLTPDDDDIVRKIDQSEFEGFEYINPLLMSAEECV
Text: as §1

[18] = target: T18, PRKCA (PKC alpha) (Homo sapiens, UniProt P17252); assay: SelectScreen ZLYTE; type: biochemical; settings: INX-0315 at 100nM
T18 construct: purchased Thermo Fisher Scientific SelectScreen (plus Nanosyn / Reaction Biology for CDK/cyclin lines)
Text: as §1

[19] = target: T19, ABL1 F317L (Homo sapiens, UniProt P00519, F317L); assay: SelectScreen ZLYTE; type: biochemical; settings: INX-0315 at 100nM
T19 construct: purchased Thermo Fisher Scientific SelectScreen (plus Nanosyn / Reaction Biology for CDK/cyclin lines)
Text: as §1

[20] = target: T20, PIM2 (Homo sapiens, UniProt Q9P1W9); assay: SelectScreen ZLYTE; type: biochemical; settings: INX-0315 at 100nM
T20 construct: purchased Thermo Fisher Scientific SelectScreen (plus Nanosyn / Reaction Biology for CDK/cyclin lines)
T20 sequence (Q9P1W9 whole entry): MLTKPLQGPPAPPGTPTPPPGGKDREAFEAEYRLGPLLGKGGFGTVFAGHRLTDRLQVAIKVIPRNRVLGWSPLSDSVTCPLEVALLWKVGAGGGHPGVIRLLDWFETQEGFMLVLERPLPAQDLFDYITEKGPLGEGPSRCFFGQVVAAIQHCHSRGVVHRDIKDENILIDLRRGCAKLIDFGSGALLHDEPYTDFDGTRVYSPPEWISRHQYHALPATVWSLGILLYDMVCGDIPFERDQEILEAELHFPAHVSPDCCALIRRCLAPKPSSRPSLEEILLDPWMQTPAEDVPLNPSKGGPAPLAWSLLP
Text: as §1

[21] = target: T21, AMPK (A2/B1/G3) (Homo sapiens, UniProt P54646); assay: SelectScreen ZLYTE; type: biochemical; settings: INX-0315 at 100nM
T21 construct: purchased Thermo Fisher Scientific SelectScreen (plus Nanosyn / Reaction Biology for CDK/cyclin lines)
Text: as §1

[22] = target: T22, NEK9 (Homo sapiens, UniProt Q8TD19); assay: SelectScreen ZLYTE; type: biochemical; settings: INX-0315 at 100nM
T22 construct: purchased Thermo Fisher Scientific SelectScreen (plus Nanosyn / Reaction Biology for CDK/cyclin lines)
Text: as §1

[23] = target: T23, EPHA2 (Homo sapiens, UniProt P29317); assay: SelectScreen ZLYTE; type: biochemical; settings: INX-0315 at 100nM
T23 construct: purchased Thermo Fisher Scientific SelectScreen (plus Nanosyn / Reaction Biology for CDK/cyclin lines)
Text: as §1

[24] = target: T24, MAPK14 (p38 alpha) (Homo sapiens, UniProt Q16539); assay: SelectScreen ZLYTE; type: biochemical; settings: INX-0315 at 100nM
T24 construct: purchased Thermo Fisher Scientific SelectScreen (plus Nanosyn / Reaction Biology for CDK/cyclin lines)
Text: as §1

[25] = target: T25, MET (cMet) (Homo sapiens, UniProt P08581); assay: SelectScreen ZLYTE; type: biochemical; settings: INX-0315 at 100nM
T25 construct: purchased Thermo Fisher Scientific SelectScreen (plus Nanosyn / Reaction Biology for CDK/cyclin lines)
Text: as §1

[26] = target: T26, CDK5/p35 (Homo sapiens, UniProt Q00535); assay: SelectScreen ZLYTE; type: biochemical; settings: INX-0315 at 100nM
T26 construct: purchased Thermo Fisher Scientific SelectScreen (plus Nanosyn / Reaction Biology for CDK/cyclin lines)
Text: as §1

[27] = target: T27, AKT3 (PKB gamma) (Homo sapiens, UniProt Q9Y243); assay: SelectScreen ZLYTE; type: biochemical; settings: INX-0315 at 100nM
T27 construct: purchased Thermo Fisher Scientific SelectScreen (plus Nanosyn / Reaction Biology for CDK/cyclin lines)
Text: as §1

[28] = target: T28, MINK1 (Homo sapiens, UniProt Q8N4C8); assay: SelectScreen ZLYTE; type: biochemical; settings: INX-0315 at 100nM
T28 construct: purchased Thermo Fisher Scientific SelectScreen (plus Nanosyn / Reaction Biology for CDK/cyclin lines)
Text: as §1

[29] = target: T29, FLT3 D835Y (Homo sapiens, UniProt P36888, D835Y); assay: SelectScreen ZLYTE; type: biochemical; settings: INX-0315 at 100nM
T29 construct: purchased Thermo Fisher Scientific SelectScreen (plus Nanosyn / Reaction Biology for CDK/cyclin lines)
Text: as §1

[30] = test system: five cell lines with CCNE1 amplification (ovarian cancer); assay: CellTiter Glo viability assay; type: cell-based; settings: 144 h
[31] = target: T30, ULK1 (Homo sapiens, UniProt O75385); assay: SelectScreen LanthaScreen Binding; settings: INX-0315 at 100nM
T30 construct: purchased Thermo Fisher Scientific SelectScreen (plus Nanosyn / Reaction Biology for CDK/cyclin lines)
Summary of the method: (§2)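 A single-dose pass at 100 nmol/L INX-315 in 1% DMSO came first. Curves of 10 points from 1 µmol/L to 0.0495 nmol/L followed, using standard predetermined assay settings.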

[32] = target: T31, ALK C1156Y (Homo sapiens, UniProt Q9UM73, C1156Y); assay: SelectScreen LanthaScreen Binding; settings: INX-0315 at 100nM
T31 construct: purchased Thermo Fisher Scientific SelectScreen (plus Nanosyn / Reaction Biology for CDK/cyclin lines)
Summary of the method: as §2

[33] = target: T32, NLK (Homo sapiens, UniProt Q9UBE8); assay: SelectScreen LanthaScreen Binding; settings: INX-0315 at 100nM
T32 construct: purchased Thermo Fisher Scientific SelectScreen (plus Nanosyn / Reaction Biology for CDK/cyclin lines)
Summary of the method: as §2

[34] = target: T33, FGFR1 V561M (Homo sapiens, UniProt P11362, V561M); assay: SelectScreen LanthaScreen Binding; settings: INX-0315 at 100nM
T33 construct: purchased Thermo Fisher Scientific SelectScreen (plus Nanosyn / Reaction Biology for CDK/cyclin lines)
T33 sequence (P11362 22-822 V561M): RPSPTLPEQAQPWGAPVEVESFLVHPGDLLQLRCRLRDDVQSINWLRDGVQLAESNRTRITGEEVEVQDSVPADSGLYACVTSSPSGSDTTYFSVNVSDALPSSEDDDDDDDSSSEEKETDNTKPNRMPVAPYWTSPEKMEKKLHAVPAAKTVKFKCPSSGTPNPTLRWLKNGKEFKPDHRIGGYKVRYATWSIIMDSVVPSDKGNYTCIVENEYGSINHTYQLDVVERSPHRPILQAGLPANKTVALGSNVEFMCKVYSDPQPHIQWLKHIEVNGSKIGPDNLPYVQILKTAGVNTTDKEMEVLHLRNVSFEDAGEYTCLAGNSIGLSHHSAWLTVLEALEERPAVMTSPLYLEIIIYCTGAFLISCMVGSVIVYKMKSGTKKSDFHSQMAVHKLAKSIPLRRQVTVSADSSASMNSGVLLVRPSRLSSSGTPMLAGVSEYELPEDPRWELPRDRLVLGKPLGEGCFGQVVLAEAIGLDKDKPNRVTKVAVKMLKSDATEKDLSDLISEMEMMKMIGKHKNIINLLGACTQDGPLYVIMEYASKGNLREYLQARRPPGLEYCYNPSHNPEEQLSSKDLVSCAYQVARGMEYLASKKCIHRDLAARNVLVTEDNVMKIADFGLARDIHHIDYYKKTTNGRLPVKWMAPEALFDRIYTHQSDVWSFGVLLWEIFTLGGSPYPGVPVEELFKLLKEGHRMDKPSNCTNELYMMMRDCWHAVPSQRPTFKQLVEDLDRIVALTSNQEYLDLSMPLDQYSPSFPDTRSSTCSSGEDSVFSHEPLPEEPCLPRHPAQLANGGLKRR
Summary of the method: as §2

[35] = target: T34, MAPK8 (JNK1) (Homo sapiens, UniProt P45983); assay: SelectScreen LanthaScreen Binding; settings: INX-0315 at 100nM
T34 construct: purchased Thermo Fisher Scientific SelectScreen (plus Nanosyn / Reaction Biology for CDK/cyclin lines)
T34 sequence (P45983 whole entry): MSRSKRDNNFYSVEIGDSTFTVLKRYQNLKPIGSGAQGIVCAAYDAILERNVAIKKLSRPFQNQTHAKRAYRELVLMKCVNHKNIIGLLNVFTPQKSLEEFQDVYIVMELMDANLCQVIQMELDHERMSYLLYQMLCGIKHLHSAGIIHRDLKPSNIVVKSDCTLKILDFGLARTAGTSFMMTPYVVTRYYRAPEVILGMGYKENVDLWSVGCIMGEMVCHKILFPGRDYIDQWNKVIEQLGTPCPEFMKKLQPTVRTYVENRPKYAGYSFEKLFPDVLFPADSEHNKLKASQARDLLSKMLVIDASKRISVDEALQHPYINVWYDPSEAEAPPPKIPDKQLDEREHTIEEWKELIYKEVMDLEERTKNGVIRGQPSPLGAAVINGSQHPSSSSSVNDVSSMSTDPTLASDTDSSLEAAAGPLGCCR
Summary of the method: as §2

[36] = target: T35, TNK2 (ACK) (Homo sapiens, UniProt Q07912); assay: SelectScreen LanthaScreen Binding; settings: INX-0315 at 100nM
T35 construct: purchased Thermo Fisher Scientific SelectScreen (plus Nanosyn / Reaction Biology for CDK/cyclin lines)
T35 sequence (Q07912 whole entry): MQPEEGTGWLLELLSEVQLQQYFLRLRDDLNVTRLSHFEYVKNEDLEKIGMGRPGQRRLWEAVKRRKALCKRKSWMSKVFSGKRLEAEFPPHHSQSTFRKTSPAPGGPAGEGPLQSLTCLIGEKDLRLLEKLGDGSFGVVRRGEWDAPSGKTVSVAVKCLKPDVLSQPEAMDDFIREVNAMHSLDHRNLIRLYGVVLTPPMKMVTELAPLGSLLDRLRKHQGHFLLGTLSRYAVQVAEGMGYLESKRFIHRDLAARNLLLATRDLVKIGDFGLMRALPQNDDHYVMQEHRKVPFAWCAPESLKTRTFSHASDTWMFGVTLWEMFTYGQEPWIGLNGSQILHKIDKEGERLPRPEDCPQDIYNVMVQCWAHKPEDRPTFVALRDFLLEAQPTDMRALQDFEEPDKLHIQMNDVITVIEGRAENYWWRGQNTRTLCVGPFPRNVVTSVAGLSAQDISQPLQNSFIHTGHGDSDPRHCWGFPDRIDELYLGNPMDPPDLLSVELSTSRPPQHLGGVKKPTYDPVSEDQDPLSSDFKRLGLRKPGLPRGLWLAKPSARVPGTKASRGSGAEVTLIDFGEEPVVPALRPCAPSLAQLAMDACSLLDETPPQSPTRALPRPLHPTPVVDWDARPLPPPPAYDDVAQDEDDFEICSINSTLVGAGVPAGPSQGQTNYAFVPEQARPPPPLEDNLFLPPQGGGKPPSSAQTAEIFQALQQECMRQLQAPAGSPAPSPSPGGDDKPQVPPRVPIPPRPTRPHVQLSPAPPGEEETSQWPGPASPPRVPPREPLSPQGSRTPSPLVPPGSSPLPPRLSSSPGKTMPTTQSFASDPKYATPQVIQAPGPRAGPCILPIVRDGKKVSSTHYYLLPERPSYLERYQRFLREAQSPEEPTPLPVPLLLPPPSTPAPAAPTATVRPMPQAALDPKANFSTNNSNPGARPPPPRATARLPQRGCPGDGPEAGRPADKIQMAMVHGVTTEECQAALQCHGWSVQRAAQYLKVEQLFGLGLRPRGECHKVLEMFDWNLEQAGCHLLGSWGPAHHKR
Summary of the method: as §2

[37] = target: T36, CASK (Homo sapiens, UniProt O14936); assay: SelectScreen LanthaScreen Binding; settings: INX-0315 at 100nM
T36 construct: purchased Thermo Fisher Scientific SelectScreen (plus Nanosyn / Reaction Biology for CDK/cyclin lines)
Summary of the method: as §2

NS(=O)(=O)c1ccc(Nc2ncc3cc4n(c3n2)C2(CCCCC2)C(=O)NN4)cc1 [INX-315]
inhibition at 0.1 µM [1]: 7% | inhibition at 0.1 µM [2]: -2% | inhibition at 0.1 µM [3]: 7% | inhibition at 0.1 µM [4]: 4% | inhibition at 0.1 µM [5]: 55% | inhibition at 0.1 µM [6]: 6% | inhibition at 0.1 µM [7]: 4% | inhibition at 0.1 µM [8]: 16% | inhibition at 0.1 µM [9]: 4% | inhibition at 0.1 µM [10]: 10% | inhibition at 0.1 µM [11]: 5% | inhibition at 0.1 µM [12]: 11% | inhibition at 0.1 µM [13]: 1% | inhibition at 0.1 µM [14]: 42% | inhibition at 0.1 µM [15]: 1% | inhibition at 0.1 µM [16]: 0% | inhibition at 0.1 µM [17]: -5% | inhibition at 0.1 µM [18]: 9% | inhibition at 0.1 µM [19]: 3% | inhibition at 0.1 µM [20]: 5% | inhibition at 0.1 µM [21]: 17% | inhibition at 0.1 µM [22]: 2% | inhibition at 0.1 µM [23]: 14% | inhibition at 0.1 µM [24]: 1% | inhibition at 0.1 µM [25]: 6% | inhibition at 0.1 µM [26]: 87% | inhibition at 0.1 µM [27]: 6% | inhibition at 0.1 µM [28]: 15% | inhibition at 0.1 µM [29]: 31% | IC50 ([30]; read-out: cellular IC50): < 100 nM | IC50 ([30]; read-out: cellular IC50, range): 10 to 64 nM | inhibition at 0.1 µM [31]: 1% | inhibition at 0.1 µM [32]: 9% | inhibition at 0.1 µM [33]: 0% | inhibition at 0.1 µM [34]: 12% | inhibition at 0.1 µM [35]: 18% | inhibition at 0.1 µM [36]: 0% | inhibition at 0.1 µM [37]: -3%
